Molecules are shown by their SMILES.

In general, logP refers to the decadic logarithm of the partition coefficient of the neutral form, usually between octanol and water. Higher therefore signals higher lipophilicity. Regarding `C/C(=N/N/C(N)=N/c1ccccc1)c1ccccc1`, the logP was determined as 2.18.

As to `CCCCC(C)=NNC(N)=Nc1ccccc1`, the logP worked out at 2.05.

`CCC/C(=N\NC(N)=Nc1ccccc1)c1ccccc1` registered a logP of 2.08.

As for `NC(=Nc1ccccc1)NN=Cc1ccc2ccccc2n1`, the log partition coefficient (logP) was 0.99.

On to `NC(N)=N/N=C/c1cccs1`, for which the logP is 0.98.

In the case of `CCCC(CCC)=NNC(=N)N`, the log partition coefficient (logP) came to 1.73.

For `N=C(N)NN=Cc1ccccc1`, the logP was 1.18.

On to `CC(=NN=C(N)N)c1cccs1`, for which the logP amounted to 1.05.

The compound `CCCC(CCC)=NNC(N)=Nc1ccccc1` had a lipophilicity (logP) of 2.33.

The compound `NC(N)=N/N=C(\c1ccccc1)c1cccs1` had a lipophilicity (logP) of 1.96.

Take `CCCCCC/C(C)=N\N=C(N)N`: the logP stood at 2.08.

For `CCCCCC(CCC)=NNC(=N)N`, the logP came to 2.17.

Source of the values: the SangsterLogP compilation.
